# Data as given in patent publication US9452170B2, “Compounds and methods for inducing chondrogenesis” (The California Institute for Biomedical Research, priority 2013, dated 2016).
# System: Human MSCs
# Experiment: Human chondrocyte differentiation assay (immunostaining for type II collagen, Sox9 and COMP)
# Type: cell-based
# Settings: 168 h, compound 1 μM, 7 days, vs DMSO vehicle, read-out: Biological Activity (increase in staining intensity compared to vehicle control)
# Procedure: Human MSCs (50,000) were plated into each well of a 96-well plate and cultured overnight. Compounds (in DMSO solution) were added to the cells at a final concentration of 1 μM, and the cells were cultured for 7 days at 5% CO2, 37° C. The cells were fixed with 10% formalin solution at room temperature for 10 min, and immunostained using antibodies specific for type II collagen (Abcam), Sox9 (Santa Cruz) and cartilage oligomeric matrix protein (COMP, Santa Cruz), and fluorescently labeled secondary antibodies (Li-Cor). The total intensity of the staining was measured using Oddyssey CLx imaging system (Li-Cor). Vehicle (DMSO) was used as control to determine the basal level of chondrocyte differentiation. […] Representative data are shown in Table 1 [A: >50% increase in staining intensity compared to vehicle control; B: 30-50% increase in staining intensity compared to vehicle control].
row,Structure (SMILES),activation at 1 µM [%]
1,N#Cc1ccc(Cl)c(NC(=O)c2ccccc2C(=O)O)c1 [Compound 1],30 to 50
2,N#Cc1cc(NC(=O)c2ccccc2C(=O)O)ccc1Cl [Compound 2],30 to 50
3,N#Cc1cc(Cl)cc(NC(=O)c2ccccc2C(=O)O)c1 [Compound 3],> 50
4,CC(=O)c1ccc(Cl)c(NC(=O)c2ccccc2C(=O)O)c1 [Compound 4],> 50
5,CC(=O)c1cc(NC(=O)c2ccccc2C(=O)O)ccc1Cl [Compound 5],30 to 50
6,COc1ccc(C#N)cc1NC(=O)c1ccccc1C(=O)O [Compound 6],> 50
7,COc1ccc(NC(=O)c2ccccc2C(=O)O)cc1C#N [Compound 7],> 50
8,N#Cc1cc(Cl)ccc1NC(=O)c1ccccc1C(=O)O [Compound 8],30 to 50
9,N#Cc1cc(NC(=O)c2ccccc2C(=O)O)cc(C(F)(F)F)c1 [Compound 9],> 50
10,O=C(O)c1ccccc1C(=O)Nc1ccc(C(F)(F)F)c(F)c1 [Compound 10],30 to 50
11,O=C(O)c1ccccc1C(=O)Nc1ccc(Cl)cc1C(F)(F)F [Compound 11],30 to 50
12,O=C(O)c1ccccc1C(=O)Nc1cc(Cl)cc(C(F)(F)F)c1 [Compound 12],30 to 50
13,Cc1ccc(NC(=O)c2ccccc2C(=O)O)c(C#N)c1 [Compound 13],30 to 50
14,CC(=O)c1ccc(OC(F)F)c(NC(=O)c2ccccc2C(=O)O)c1 [Compound 14],30 to 50
15,NS(=O)(=O)c1ccc(N2C(=O)c3ccccc3C2=O)cc1 [Compound 15],30 to 50
16,COc1ccc2c(c1)C(=O)N(c1ccc(C(=O)O)cc1)C2=O [Compound 16],> 50
17,O=C(O)c1ccccc1C(=O)Nc1ccccc1OC(F)(F)F [Compound 17],30 to 50
18,O=C(O)c1ccccc1C(=O)Nc1cccc(C(F)(F)F)c1 [Compound 18],> 50
19,O=C(O)c1ccccc1C(=O)Nc1cccc(OC(F)(F)F)c1 [Compound 19],> 50
20,Cc1ncsc1NC(=O)c1ccccc1C(=O)O [Compound 22],30 to 50
21,CC(C(=O)c1ccc(C#N)cc1)C1OC(=O)c2ccccc21 (centres unmarked) [Compound 23],> 50
22,N#Cc1ccc(C(=O)CC2NC(=O)c3ccccc32)cc1 (centres unmarked) [Compound 24],> 50
23,N#Cc1ccc(C(=O)CC2OC(=O)c3ccccc32)cc1 (centres unmarked) [Compound 25],30 to 50

row,Structure (SMILES),activation at 1 µM [%]
1,NS(=O)(=O)c1ccc(N2Cc3ccccc3C2=O)cc1 [Compound 26],30 to 50
2,CNS(=O)(=O)c1ccc(N2CCCC2=O)cc1 [Compound 28],30 to 50
3,O=C(O)c1ccccc1C(=O)Nc1nccs1 [Compound 29],30 to 50
4,CC(=O)c1ccc(F)c(NC(=O)c2ccccc2C(=O)O)c1 [Compound 30],30 to 50
5,CC(=O)c1cc(NC(=O)c2ccccc2C(=O)O)ccc1F [Compound 31],30 to 50
6,CC(C)(CO)c1ccc(NC(=O)c2ccccc2C(=O)O)cc1 [Compound 32],30 to 50
7,Cc1ccc2c(c1)C(=O)N(c1ccc(C(=O)O)cc1)C2=O [Compound 33],30 to 50
8,N#Cc1ccc(F)c(NC(=O)c2ccccc2C(=O)O)c1 [Compound 34],30 to 50
9,N#Cc1cccc(NC(=O)c2ccccc2C(=O)O)c1F [Compound 35],30 to 50
10,N#Cc1cc(NC(=O)c2ccccc2C(=O)O)ccc1F [Compound 36],30 to 50
11,N#Cc1cc(F)cc(NC(=O)c2ccccc2C(=O)O)c1 [Compound 37],> 50
12,CS(=O)(=O)c1cccc(NC(=O)c2ccccc2C(=O)O)c1 [Compound 38],30 to 50
13,N#Cc1cccc(C(=O)CC2NC(=O)c3ccccc32)c1 (centres unmarked) [Compound 39],30 to 50
14,N#Cc1ccccc1C(=O)CC1OC(=O)c2ccccc21 (centres unmarked) [Compound 40],30 to 50
15,O=C(CC1OC(=O)c2ccccc21)c1ccccc1Cl (centres unmarked) [Compound 41],> 50
16,O=C(CC1NC(=O)c2ccccc21)c1ccc(C(F)(F)F)cc1 (centres unmarked) [Compound 42],30 to 50
17,CS(=O)(=O)c1ccc(C(=O)CC2OC(=O)c3ccccc32)cc1 (centres unmarked) [Compound 44],30 to 50
18,CS(=O)(=O)Nc1ccccc1C(=O)Nc1ccc(CC#N)cc1 [Compound 45],30 to 50
19,CS(=O)(=O)Nc1ccccc1C(=O)Nc1ccc(Br)cc1 [Compound 46],30 to 50
20,O=C(O)Cc1ccccc1C(=O)Nc1ccc(CCO)cc1 [Compound 47],30 to 50
21,COc1cccc(NC(=O)c2ccccc2C(=O)O)c1 [Compound 48],30 to 50
22,COC(=O)N(C)Cc1cccc(NC(=O)c2ccccc2C(=O)O)c1 [Compound 49],30 to 50
23,CC(=O)N(C)Cc1cccc(NC(=O)c2ccccc2C(=O)O)c1 [Compound 50],30 to 50

row,Structure (SMILES),activation at 1 µM [%]
1,NC(=O)Cc1ccc(NC(=O)c2ccccc2C(=O)O)cc1 [Compound 51],30 to 50
2,CC(O)Cc1ccc(NC(=O)c2ccccc2C(=O)O)cc1 (centres unmarked) [Compound 52],30 to 50
3,O=C(O)c1ccc(S(=O)(=O)Nc2ccccc2C(=O)O)cc1 [Compound 53],30 to 50
4,N#Cc1ccc(C(=O)Nc2cnccc2C(=O)O)cc1 [Compound 54],30 to 50
5,O=C(O)c1ccccc1NC(=O)c1ccccc1C(=O)O [Compound 55],> 50
6,CN(C)S(=O)(=O)c1ccccc1NC(=O)c1ccc(C#N)cc1 [Compound 56],> 50
7,O=C(O)c1ccccc1C(=O)Nc1ccccc1CCO [Compound 57],30 to 50
8,C/C(=N\O)c1cccc(NC(=O)c2ccccc2C(=O)O)c1 [Compound 58],30 to 50
9,CON=C(C)c1cccc(NC(=O)c2ccccc2C(=O)O)c1 [Compound 59],30 to 50
10,N#Cc1ccc(NC(=O)c2ccccc2-c2ccc(C(=O)O)cc2)cc1 [Compound 60],> 50
11,N#Cc1ccc(NC(=O)c2ccccc2-c2ccccc2C(=O)O)cc1 [Compound 61],> 50
12,O=C(O)c1ccccc1C(=O)Nc1ccc2c(c1)OCCO2 [Compound 64],30 to 50
13,O=C(O)c1ccccc1C(=O)Nc1ccc2c(c1)OCO2 [Compound 65],> 50
14,Cc1cc(NC(=O)c2ccccc2C(=O)O)ccn1 [Compound 66],30 to 50
15,Cc1cnccc1NC(=O)c1ccccc1C(=O)O [Compound 67],> 50
16,COc1ccccc1NC(=O)c1ccccc1C(=O)O [Compound 68],> 50
17,O=C(O)c1ccccc1C(=O)NCc1cc(C(F)(F)F)cc(C(F)(F)F)c1 [Compound 69],30 to 50
18,N#Cc1ccccc1NC(=O)c1ccccc1C(=O)O [Compound 70],> 50
19,NCc1cccc(NC(=O)c2ccccc2C(=O)O)c1 [Compound 71],> 50
20,CS(=O)(=O)NCc1cccc(NC(=O)c2ccccc2C(=O)O)c1 [Compound 72],> 50
21,O=C(O)c1ccccc1C(=O)Nc1ccc(-c2ncc[nH]2)cc1 [Compound 74],30 to 50
22,CN(C(N)=O)c1ccccc1C(=O)Nc1ccc(C#N)cc1 [Compound 75],30 to 50
23,N#Cc1ccc(NC(=O)c2ccccc2NS(=O)(=O)c2ccccc2)cc1 [Compound 77],> 50

row,Structure (SMILES),activation at 1 µM [%]
1,CN(c1ccccc1C(=O)Nc1ccc(C#N)cc1)S(C)(=O)=O [Compound 78],30 to 50
2,COCCS(=O)(=O)Nc1ccccc1C(=O)Nc1ccc(C#N)cc1 [Compound 79],30 to 50
3,O=C(O)c1ccccc1C(=O)Nc1ccon1 [Compound 80],30 to 50
4,O=C(O)c1ccccc1C(=O)NCCOc1ccccc1 [Compound 81],30 to 50
5,Cc1cc(NC(=O)c2ccccc2C(=O)O)n[nH]1 [Compound 82],> 50
6,O=C(O)c1ccccc1C(=O)Nc1ccccc1OCC(F)(F)F [Compound 83],> 50
7,CC(CO)c1ccc(NC(=O)c2ccccc2C(=O)O)cc1 (centres unmarked) [Compound 84],> 50
8,Cc1ccc(NC(=O)c2ccccc2C(=O)O)c(F)c1 [Compound 85],30 to 50
9,O=C(O)c1ccccc1C(=O)NCc1ccccc1OC(F)F [Compound 86],30 to 50
10,COc1ccc(OC)c(NC(=O)c2ccccc2C(=O)O)c1 [Compound 87],30 to 50
11,O=C(O)c1ccc(CNC(=O)c2cccc(F)c2C(=O)O)cc1 [Compound 93],30 to 50
12,O=C(O)c1ccc(CNC(=O)c2c(F)cccc2C(=O)O)cc1 [Compound 94],30 to 50
13,O=C(O)c1ccc(CNC(=O)c2ccccc2C(=O)O)c(Cl)c1 [Compound 96],30 to 50
14,O=C(O)c1ccc(CNC(=O)c2cccc(Cl)c2C(=O)O)cc1 [Compound 99],30 to 50
15,O=C(O)c1ccc(CNC(=O)c2c(Cl)cccc2C(=O)O)cc1 [Compound 100],30 to 50
16,COc1cccc(C(=O)NCc2ccc(C(=O)O)cc2)c1C(=O)O [Compound 103],> 50
17,COc1cccc(C(=O)O)c1C(=O)NCc1ccc(C(=O)O)cc1 [Compound 104],> 50
18,O=C(O)c1ccccc1C(=O)Nc1ccc(OCCO)cc1 [Compound 105],30 to 50
19,COc1ccc(C(=O)NCc2ccc(C(=O)O)cc2)c(C(=O)O)c1 [Compound 106],30 to 50
20,CN(c1cccc(NC(=O)c2ccccc2C(=O)O)c1)S(C)(=O)=O [Compound 107],30 to 50
